The supplement of paper PMC13380429

Assays:
Conditions in all cases: 72 h
Caco-2 [1] = test: cell viability relative to DMSO; higher = less toxic
Calu-3 [2] = test: as above
HepG2 [3] = test: as above
U2OS [4] = test: as above
Vero E6 [5] = test: as above
Caco-2 [6] = test: relative viability EC50 (midpoint between 100% and the lowest measured viability); higher = less toxic
HepG2 [7] = test: as above
U2OS [8] = test: as above
Vero E6 [9] = test: as above
Caco-2 [10] = test: drug sensitivity score (DSS) for viability; higher = more toxic; extreme values may be limits of the assay
Calu-3 [11] = test: as above
HepG2 [12] = test: as above
U2OS [13] = test: as above
Vero E6 [14] = test: as above
Calu-3 [15] = test: relative viability EC50 (midpoint between 100% and the lowest measured viability); higher = less toxic

| Compound | cell viability (Caco-2 [1]; 1 nM) [%] | cell viability (Caco-2 [1]; 10 nM) [%] | cell viability (Caco-2 [1]; 100 nM) [%] | cell viability (Caco-2 [1]; 1000 nM) [%] | cell viability (Caco-2 [1]; 10000 nM) [%] | cell viability (Calu-3 [2]; 1 nM) [%] | cell viability (Calu-3 [2]; 10 nM) [%] | cell viability (Calu-3 [2]; 100 nM) [%] | cell viability (Calu-3 [2]; 1000 nM) [%] | cell viability (Calu-3 [2]; 10000 nM) [%] | cell viability (HepG2 [3]; 1 nM) [%] | cell viability (HepG2 [3]; 10 nM) [%] | cell viability (HepG2 [3]; 100 nM) [%] | cell viability (HepG2 [3]; 1000 nM) [%] | cell viability (HepG2 [3]; 10000 nM) [%] | cell viability (U2OS [4]; 1 nM) [%] | cell viability (U2OS [4]; 10 nM) [%] | cell viability (U2OS [4]; 100 nM) [%] | cell viability (U2OS [4]; 1000 nM) [%] | cell viability (U2OS [4]; 10000 nM) [%] | cell viability (Vero E6 [5]; 1 nM) [%] | cell viability (Vero E6 [5]; 10 nM) [%] | cell viability (Vero E6 [5]; 100 nM) [%] | cell viability (Vero E6 [5]; 1000 nM) [%] | cell viability (Vero E6 [5]; 10000 nM) [%] | relative viability EC50 (Caco-2 [6]) [µM] | relative viability EC50 (HepG2 [7]) [µM] | relative viability EC50 (U2OS [8]) [µM] | relative viability EC50 (Vero E6 [9]) [µM] | drug sensitivity score (Caco-2 [10]) | drug sensitivity score (Calu-3 [11]) | drug sensitivity score (HepG2 [12]) | drug sensitivity score (U2OS [13]) | drug sensitivity score (Vero E6 [14]) | relative viability EC50 (Calu-3 [15]) [µM] |
| --- | --- | --- | --- | --- | --- | --- | --- | --- | --- | --- | --- | --- | --- | --- | --- | --- | --- | --- | --- | --- | --- | --- | --- | --- | --- | --- | --- | --- | --- | --- | --- | --- | --- | --- | --- |
| O=C1NCCc2[nH]c(-c3ccncc3)cc21 | 96.1 | 93.6 | 94.2 | 94.9 | 38.5 | 94 | 94.6 | 94.6 | 79.5 | 53.6 | 91.4 | 102 | 92.4 | 33.1 | 9.5 | 95.2 | 104 | 93.6 | 95.3 | 5.8 | 98 | 98.2 | 98.1 | 85.7 | 13.5 | 2.48 | 0.499 | 2.77 | 1.9 | 4.2 | 4.6 | 13.6 | 5.9 | 7.2 | – |
| CC(C)(C)[C@H]1CC[C@H](CC2=C(O)C(=O)c3ccccc3C2=O)CC1 [buparvaquone] | 94.1 | 101 | 102 | 111 | 81.3 | 91.4 | 104 | 95 | 96.6 | 94 | 99.5 | 104 | 98.9 | 93.9 | 71.1 | 97.4 | 100 | 99.3 | 102 | 97.6 | 102 | 101 | 105 | 82.7 | 65.5 | > 10 | – | > 10 | – | 0.3 | 0 | 2.2 | 0 | 3.8 | > 10 |
| CC(=O)NC1N=C(c2ccccc2)c2ccccc2NC1=O (configuration not stated) | 103 | 97.7 | 93.9 | 101 | 103 | 112 | 101 | 101 | 101 | 95.1 | – | – | – | – | – | 101 | 94.6 | 95.5 | 95.3 | 96.9 | 98.5 | 96.5 | 99 | 93.7 | 108 | > 10 | – | > 10 | > 10 | 0 | 0 | – | 0 | 0 | > 10 |
| CC(C)NC(=O)COc1cccc(-c2nc(Nc3ccc4[nH]ncc4c3)c3ccccc3n2)c1 [KD025] | 104 | 100 | 102 | 97.8 | 70.5 | 95.6 | 108 | 89.4 | 105 | 108 | 98.7 | 96.8 | 107 | 86.8 | 94.5 | 97.2 | 103 | 97.5 | 101 | 46.5 | 105 | 99.1 | 104 | 97.3 | 72.8 | – | > 10 | 3.29 | – | 1.6 | 0 | 0.8 | 2.7 | 1.5 | > 10 |
| c1ccc(CNCc2ccc(CN3CCCNCCNCCCNCC3)cc2)nc1 [AMD-3465] | 105 | 100 | 102 | 100 | 96.2 | 102 | 97.5 | 94.1 | 101 | 115 | 102 | 101 | 101 | 103 | 97.3 | 102 | 99.3 | 101 | 99 | 103 | – | – | – | – | – | > 10 | > 10 | > 10 | – | 0 | 0 | 0 | 0 | – | > 10 |
| CC(C)C[C@@H](NC(=O)[C@H](Cc1ccccc1)NC(=O)CNC(=O)[C@@H](C)NC(=O)[C@@H](N)Cc1ccc(O)cc1)C(=O)O [BW-180C] | 113 | 96.9 | 98.6 | 102 | 101 | 97.6 | 94.5 | 91.1 | 100 | 89.4 | 105 | 98.4 | 99.4 | 102 | 100 | 99.4 | 97.8 | 104 | 104 | 99.1 | – | – | – | – | – | > 10 | > 10 | > 10 | – | 0 | 0 | 0 | 0 | – | > 10 |
| CN(C)CCOC(c1ccccc1)c1ccccc1 [diphenhydramine] | 100 | 93.9 | 96.1 | 91.8 | 128 | 97.5 | 104 | 114 | 112 | 105 | 97.8 | 93.3 | 95.3 | 103 | 84.4 | 102 | 103 | 104 | 96.5 | 102 | – | – | – | – | – | > 10 | > 10 | > 10 | – | 0 | 0 | 0.2 | 0 | – | > 10 |
| COc1cc2c(Oc3ccc4[nH]c(C)cc4c3F)ccnc2cc1OCC1(N)CC1 [anlotinib] | 91.7 | 93.8 | 94.4 | 87.4 | 76.2 | 94.8 | 93.4 | 99.3 | 100 | 84.5 | 106 | 99.6 | 101 | 103 | 59.2 | 95.1 | 102 | 96.9 | 99.4 | 54.7 | 91.2 | 98.6 | 97 | 95.2 | 84.4 | > 10 | – | – | > 10 | 1.8 | 0.2 | 1.8 | 2.4 | 0.5 | > 10 |
| CC(C(=O)O)c1cccc(Oc2ccccc2)c1 (configuration not stated) [fenoprofen] | 98.4 | 93.5 | 98.7 | 101 | 108 | 98.1 | 112 | 111 | 103 | 103 | – | – | – | – | – | 96.7 | 99.9 | 97.5 | 103 | 105 | 101 | 94 | 95.3 | 88.7 | 112 | > 10 | – | > 10 | > 10 | 0 | 0 | – | 0 | 0 | > 10 |
| COc1cc2ncn(-c3cc(OCc4ccccc4C(F)(F)F)c(C(N)=O)s3)c2cc1OC | 102 | 95.5 | 102 | 73.4 | 62.3 | 95.9 | 101 | 95.4 | 90 | 86.1 | 95.6 | 108 | 105 | 50 | 26.5 | 102 | 97.8 | 102 | 94.4 | 89.4 | 104 | 96 | 98.8 | 69.1 | 57.5 | – | 0.743 | > 10 | – | 4.9 | 0.5 | 9.9 | 0.1 | 5.9 | > 10 |
| CN(C)C(=O)COC(=O)Cc1ccc(OC(=O)c2ccc(NC(=N)N)cc2)cc1 [camostat-mesilate] | 102 | 98.9 | 104 | 105 | 108 | 100 | 106 | 98.2 | 110 | 103 | – | – | – | – | – | 97.8 | 102 | 94.2 | 104 | 102 | 110 | 99.7 | 101 | 103 | 106 | > 10 | – | > 10 | > 10 | 0 | 0 | – | 0 | 0 | > 10 |
| NCCCC[C@H](N[C@@H](CCc1ccccc1)C(=O)O)C(=O)N1CCC[C@H]1C(=O)O [lisinopril] | – | – | – | – | – | 109 | 94.7 | 110 | 98.8 | 93.4 | – | – | – | – | – | 102 | 95.7 | 95 | 97 | 97.2 | 104 | 105 | 102 | 101 | 99.2 | – | – | > 10 | > 10 | – | 0 | – | 0 | 0 | > 10 |
| CCOCCn1c(C2CCN(CCc3ccc(C(C)(C)C(=O)O)cc3)CC2)nc2ccccc21 [bilastine] | 102 | 87.5 | 85.6 | 92.5 | 87.8 | 98.1 | 106 | 93.5 | 97.8 | 99.5 | 94.3 | 96 | 104 | 97.6 | 100 | 96.6 | 98.2 | 103 | 103 | 95.7 | – | – | – | – | – | > 10 | > 10 | > 10 | – | 3.1 | 0 | 0 | 0 | – | > 10 |
| Cc1ccnc2c1CCCC2C(N)=S (configuration not stated) [isotiquimide] | 106 | 102 | 99.9 | 96 | 110 | 95.1 | 86.7 | 98.1 | 107 | 106 | 103 | 100 | 92.4 | 99.4 | 98.6 | 102 | 97.4 | 100 | 101 | 102 | – | – | – | – | – | > 10 | > 10 | > 10 | – | 0 | 0 | 0 | 0 | – | > 10 |
| CCn1cc(C(=O)O)c(=O)c2cnc(N3CCNCC3)nc21 [pipemidic-acid] | 94.2 | 102 | 95.5 | 99.4 | 92.9 | 107 | 99.1 | 103 | 96.9 | 91.9 | 110 | 108 | 107 | 99.8 | 102 | 98.7 | 101 | 97.4 | 104 | 100 | – | – | – | – | – | > 10 | > 10 | > 10 | – | 0 | 0 | 0 | 0 | – | > 10 |
| Oc1cc(O)c(Cl)cn1 [gimeracil] | 97.8 | 92.7 | 97.7 | 95.8 | 98.1 | 107 | 105 | 104 | 98.3 | 92.4 | 105 | 106 | 98.3 | 96.2 | 87.2 | 100 | 100 | 104 | 98.5 | 104 | – | – | – | – | – | > 10 | > 10 | > 10 | – | 0 | 0 | 0.2 | 0 | – | > 10 |
